Measured values reported in US20260166159A1, “KRAS G12D DEGRADATION AGENT, AND PREPARATION METHOD AND USE THEREFOR” (LEADINGTAC PHARMACEUTICAL (SHAOXING) CO., LTD., priority 2022, published 2026).

Assays:
Format in all cases: cell-based
[1] = tested on: KRAS G12D mutant human metastatic pancreatic cancer cell AsPc-1; assay: 3D cell proliferation inhibition assay, AsPc-1; conditions: ASPC1, 168 h, AsPc-1, 7 days, CTG, numeric values
Source text: (§1) The inhibitory effects of the compounds on 3D cell proliferation were investigated on KRAS G12D mutant human lung cancer cell A427, KRAS G12D mutant human gastric cancer cell AGS, KRAS G12D mutant human metastatic pancreatic cancer cell AsPc-1, KRAS G12D mutant human pancreatic cancer cell Panc 04.03, KRAS G12D mutant human pancreatic cancer cell HPAC, KRAS G12V mutant human lung squamous cell carcinoma cell SW900, and KRAS WT human gastric cancer cell MKN1. The specific procedures were as follows:
(§2) 10 μL of each compound solution diluted in a gradient was added to corresponding wells of a 96-well low-adsorption microplate (PerkinElmer), so that the final concentrations of the test compounds in the reaction system were in a range of 10000-0.026 nM. The final concentration of DMSO was 0.2%. Then 90 µL of cells were correspondingly seeded into each well to achieve a cell density of 5×10^2 cells/well (the cell density of SW900 was 5×10^1 cells/well, and the cell density of MKN1 was 1×10^3 cells/well). In addition to test wells for the test compounds, both a DMSO control well and a medium control well were set, with the DMSO control well containing DMSO and cells and the medium well containing only a medium. After the sample loading, the 96-well low-adsorption microplate was incubated in an incubator at 37° C. with 5% carbon dioxide for 7 days. After 7 days, the microplate was taken out, and 100 μL of CTG reagent (Promega) was added to each well. The plate was incubated at room temperature for 60 min and read on a microplate reader EnVision by the chemiluminescence program. The inhibition rates of the compounds at each concentration were calculated using the formula for the percentage inhibition of cell proliferation: inhibition rate %=(mean value of DMSO control group−single concentration reading value of compound)/(mean value of DMSO control group−mean value of medium control group)×100. Then non-linear curve fittings for logarithmic concentration-inhibition rate were performed by GraphPad Prism 8, and the IC50 values of the compounds were obtained (Table 5).

[2] = tested on: KRAS G12D mutant human gastric cancer cell AGS; assay: 3D cell proliferation inhibition assay, AGS; conditions: 168 h, 7 days, CTG, numeric values
In short: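 A 7-day 3D growth at 37 °C, 5% CO2, 5×10^2 cells/well, with final compound concentrations of 10000–0.026 nM and 0.2% DMSO. Read-out: CTG luminescence (60 min, room temperature); % inhibition against DMSO-treated cells and medium blank, fitted versus log concentration to give IC50.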

[3] = tested on: KRAS G12D mutant human pancreatic cancer cell HPAC; assay: 3D cell proliferation inhibition assay, HPAC; conditions: 168 h, 7 days, CTG
Source text: as §1, §2

[4] = tested on: KRAS G12D mutant human pancreatic cancer cell Panc 04.03; assay: 3D cell proliferation inhibition assay, Panc 04.03; conditions: 168 h, Panc 04.03, 7 days, CTG, numeric values
Source text: as §1, §2

KRAS-G12D = molecular target: T1, KRAS-G12D (Homo sapiens, UniProt P01116, G12D); assay: KRAS-G12D degradation assay (Western Blot), AsPc-1 cells; conditions: for DC50: 24 h; for Dmax: ASPC1, 24 h
T1 construct: endogenous in cells; host or cells: A-427 (ATCC), AGS, AsPc-1, Panc 04.03
Experimental: The degradation effects of the compounds on KRAS-G12D were investigated on KRAS G12D mutant human lung cancer cell A-427 (ATCC), KRAS G12D mutant human gastric cancer cell AGS, KRAS G12D mutant human metastatic pancreatic cancer cell AsPc-1, and KRAS G12D mutant human pancreatic adenocarcinoma cell Panc 04.03. The specific procedures were as follows: 0.95 mL of cells were seeded into each well of a 24-well cell culture plate to achieve a cell density of 5×10^5 cells/well; and the cell plate was incubated in an incubator at 37° C. with 5% CO2 overnight. Then 50 μL of the compound solution after dilution was added to each of the wells with the corresponding cells, so that the final concentration of the compound was in a range of 0.03-3000 nM. The final concentration of DMSO was 0.25%. After the compounds were added, the cell plate was incubated in the incubator at 37° C. with 5% CO2 for 24 h. The culture medium in the 24-well cell culture plate was removed, and the plate was washed twice with 1×PBS (KeyGEN). 120 μL of RIPA (strong) lysis buffer (Beyotime) supplemented with 1 mM phenylmethylsulfonyl fluoride, a protease inhibitor mixture (Beyotime), and a protease phosphatase inhibitor mixture (Beyotime) was added to lyse adherent A-427 cells at the bottom of the cell culture plate. After the plate was left to stand on ice for 30 min, the protein lysate in each well was transferred to a 1.5 mL centrifuge tube and centrifuged at 15000 g for 20 min at 4° C. The cell lysate supernatants after centrifugation were cryopreserved in a refrigerator at −80° C. for later use.
After the samples of the cell lysate supernatants that had been prepared were thawed from the refrigerator at −80° C., the total protein concentrations of the cell lysates were determined using a BCA protein quantification kit (Tiangen). The total protein concentrations of the samples were then adjusted to 0.5 μg/μL with PBS and 5×SDS-PAGE protein loading buffer (Beyotime), and the samples were incubated in a water bath at 100° C. for 15 min. The samples were then incubated in an ice bath for 5 min and centrifuged at 14000 g for 1 min at 4° C., and the supernatants were mixed well as loading samples for the Western Blot assay. The samples were loaded into wells of a 10% precast gel (KeyGEN) with a loading volume of 10 μL (total protein: 5 μg), a sufficient Tris-MOPS-SDS running buffer (Adamas) was added, and then electrophoresis was performed at a constant voltage of 120 V for 55 min. After the electrophoresis, the proteins on the gel were transferred to PVDF membranes at a constant current of 250 mA for 55 min. After the membrane transfer, the PVDF membranes were incubated in 1× Quick Block blocking buffer (Beyotime) at room temperature for 30 min. After the blocking, the PVDF membranes were separately incubated at 4° C. overnight with the KRAS antibody (Abcam) diluted in a ratio of 1:1000 and the […] antibody (Abcam) diluted in a ratio of 1:2000 in 5% BSA as the diluent, and then washed with 1×TBST buffer (2.4 g of Tris, 8.8 g of NaCl, 1.5 mL of Tween 20, with pH adjusted to 7.4, with the volume brought to 1 L) 3 times for 10 min/time. The membranes were incubated with a secondary antibody (Abcam) diluted in 5% BSA at room temperature for 2 h, and then washed with 1×TBST buffer 3 times for 10 min/time. Finally, the membranes were incubated with Clarity Western ECL Substrate (BIO-RAD) for 5 min for luminescence and color development, and a ChemiScope 6200 Touch chemiluminescence imaging system (Clinx) was used for color development and protein mapping. Gray value analysis of the protein maps was performed using the chemiluminescence analysis software (Clinx). The gray correction value for each sample was calculated using the formula: gray correction value=(gray value of target protein/gray value of corresponding internal reference)×10^3. Then degradation rates were calculated by comparison with the gray correction value of the control group. […]

T1 sequence (P01116 1-188 isoform P01116-2 G12D): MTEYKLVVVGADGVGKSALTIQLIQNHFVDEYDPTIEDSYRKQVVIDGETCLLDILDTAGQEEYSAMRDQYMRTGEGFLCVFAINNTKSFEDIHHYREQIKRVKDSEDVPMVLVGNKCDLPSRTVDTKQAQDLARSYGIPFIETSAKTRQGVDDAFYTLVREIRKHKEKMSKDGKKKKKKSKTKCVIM

Compound: C#Cc1c(F)ccc2cc(O)cc(-c3ncc4c(N5CC6CCC(C5)N6)nc(OC[C@H](C)CN5CCN(CC6CCC7(CC6)CCN(C(=O)c6ccc(C)c(N8CCC(=O)NC8=O)c6)CC7)CC5)nc4c3F)c12 [Example 100, 1-(5-(9-((4-((R)-3-((4-(3,8-diazabicyclo[3.2.1]octan-3-yl)-7-(8-ethynyl-7-fluoro-3-hydroxynaphthalen-1-yl)-8-fluoropyrido[4,3-d]pyrimidin-2-yl)oxy)-2-methylpropyl)piperazin-1-yl)methyl)-3-azaspiro[5.5]undecane-3-carbonyl)-2-methylphenyl)dihydropyrimidine-2,4(1H,3H)-dione]
- IC50 [1]: 2.02 nM
- IC50 [2]: 3.63 nM
- IC50 [3]: 2.43 nM
- IC50 [4]: 23.8 nM
- DC50 (KRAS-G12D): 2.54 nM
- Dmax (KRAS-G12D): 100%

Compound: C#Cc1c(F)ccc2cc(O)cc(-c3ncc4c(N5CC6CCC(C5)N6)nc(OC[C@H](C)CN5CCN(CC6CCC7(CC6)CCN(C(=O)c6ccc(Cl)c(N8CCC(=O)NC8=O)c6)CC7)CC5)nc4c3F)c12 [Example 102, 1-(5-(9-((4-((R)-3-((4-(3,8-diazabicyclo[3.2.1]octan-3-yl)-7-(8-ethynyl-7-fluoro-3-hydroxynaphthalen-1-yl)-8-fluoropyrido[4,3-d]pyrimidin-2-yl)oxy)-2-methylpropyl)piperazin-1-yl)methyl)-3-azaspiro[5.5]undecane-3-carbonyl)-2-chlorophenyl)dihydropyrimidine-2,4(1H,3H)-dione]
- IC50 [1]: 3.69 nM
- IC50 [2]: 6.56 nM
- IC50 [3]: 13.5 nM
- IC50 [4]: 15.2 nM
- DC50 (KRAS-G12D): 8.93 nM
- Dmax (KRAS-G12D): 100%

Compound: C#Cc1c(F)ccc2cc(O)cc(-c3ncc4c(N5CC6CCC(C5)N6)nc(OCC5(CN6CCN(CC7CCC8(CC7)CCN(C(=O)c7cc(N9CCC(=O)NC9=O)c(C)cc7F)CC8)CC6)CC5)nc4c3F)c12 [Example 104, 1-(5-(9-((4-((1-(((4-(3,8-diazabicyclo[3.2.1]octan-3-yl)-7-(8-ethynyl-7-fluoro-3-hydroxynaphthalen-1-yl)-8-fluoropyrido[4,3-d]pyrimidin-2-yl)oxy)methyl)cyclopropyl)methyl)piperazin-1-yl)methyl)-3-azaspiro[5.5]undecane-3-carbonyl)-4-fluoro-2-methylphenyl)dihydropyrimidine-2,4(1H,3H)-dione]
- IC50 [1]: 1.83 nM
- IC50 [2]: 2.49 nM
- IC50 [3]: 5.32 nM
- IC50 [4]: 31.3 nM

Compound: C#Cc1c(F)ccc2cc(O)cc(-c3ncc4c(N5CC6CCC(C5)N6)nc(OCC5(CN6CCN(CC7CCC8(CCN(C(=O)c9ccc(C)c(N%10CCC(=O)NC%10=O)c9)CC8)CO7)CC6)CC5)nc4c3F)c12 (stereo not shown) [Example 106, 1-(5-(3-((4-((1-(((4-(3,8-diazabicyclo[3.2.1]octan-3-yl)-7-(8-ethynyl-7-fluoro-3-hydroxynaphthalen-1-yl)-8-fluoropyrido[4,3-d]pyrimidin-2-yl)oxy)methyl)cyclopropyl)methyl)piperazin-1-yl)methyl)-2-oxa-9-azaspiro[5.5]undecane-9-carbonyl)-2-methylphenyl)dihydropyrimidine-2,4(1H,3H)-dione]
- IC50 [1]: 30.8 nM
- IC50 [2]: 13.4 nM
- IC50 [3]: 152 nM
- IC50 [4]: 63.5 nM
- DC50 (KRAS-G12D): 10.5 nM
- Dmax (KRAS-G12D): 99.5%

Compound: C#Cc1c(F)ccc2cc(O)cc(-c3ncc4c(N5CC6CCC(C5)N6)nc(OC[C@H](C)CN5CCN(CC6CCC7(CC6)CCN(C(=O)c6ccc(CC)c(N8CCC(=O)NC8=O)c6)CC7)CC5)nc4c3F)c12 [Example 110, 1-(5-(9-((4-((R)-3-((4-(3,8-diazabicyclo[3.2.1]octan-3-yl)-7-(8-ethynyl-7-fluoro-3-hydroxynaphthalen-1-yl)-8-fluoropyrido[4,3-d]pyrimidin-2-yl)oxy)-2-methylpropyl)piperazin-1-yl)methyl)-3-azaspiro[5.5]undecane-3-carbonyl)-2-ethylphenyl)dihydropyrimidine-2,4(1H,3H)-dione]
- IC50 [1]: 4.47 nM
- IC50 [2]: 5.69 nM
- IC50 [3]: 18.6 nM
- IC50 [4]: 12.5 nM
- DC50 (KRAS-G12D): 2.56 nM
- Dmax (KRAS-G12D): 99.2%

Compound: C#Cc1c(F)ccc2cc(O)cc(-c3ncc4c(N5CC6CCC(C5)N6)nc(OCC5(CN6CCN(CC7CCC8(CCN(C(=O)c9ccc(C)c(N%10CCC(=O)NC%10=O)c9)CC8)OC7)CC6)CC5)nc4c3F)c12 (stereo not shown) [Example 151, 1-(5-(3-((4-((1-(((4-(3,8-diazabicyclo[3.2.1]octan-3-yl)-7-(8-ethynyl-7-fluoro-3-hydroxynaphthalen-1-yl)-8-fluoropyrido[4,3-d]pyrimidin-2-yl)oxy)methyl)cyclopropyl)methyl)piperazin-1-yl)methyl)-1-oxa-9-azaspiro[5.5]undecane-9-carbonyl)-2-methylphenyl)dihydropyrimidine-2,4(1H,3H)-dione]
- IC50 [1]: 3.86 nM
- IC50 [2]: 6.82 nM
- IC50 [3]: 6.92 nM
- IC50 [4]: 23.1 nM

Compound: C#Cc1c(F)ccc2cc(O)cc(-c3ccc4c(N5CC6CCC(C5)N6)nc(OC[C@H](C)CN5CCN(CC6CCC7(CC6)CCN(C(=O)c6ccc(C)c(N8CCC(=O)NC8=O)c6)CC7)CC5)nc4c3F)c12 [Example 251, 1-(5-(9-((4-((R)-3-((4-(3,8-diazabicyclo[3.2.1]octan-3-yl)-7-(8-ethynyl-7-fluoro-3-hydroxynaphthalen-1-yl)-8-fluoroquinazolin-2-yl)oxy)-2-methylpropyl)piperazin-1-yl)methyl)-3-azaspiro[5.5]undecane-3-carbonyl)-2-methylphenyl)dihydropyrimidine-2,4(1H,3H)-dione]
- IC50 [1]: 14.3 nM
- IC50 [3]: 40.2 nM
- IC50 [4]: 22.4 nM
- DC50 (KRAS-G12D): 8.72 nM
- Dmax (KRAS-G12D): 99.1%
